# Columns and labels:
# [1] = biological target: T1, recombinant human pancreatic GLK (Homo sapiens, UniProt P35557); assay: Enzymatic activity of glucokinase (GLK activation, G-6-P dehydrogenase coupled, OD 340 nm); assay type: biochemical
# T1 construct: 6-His (N); made in house; host or cells: E. coli BL21
# T1 sequence (P35557 1-465): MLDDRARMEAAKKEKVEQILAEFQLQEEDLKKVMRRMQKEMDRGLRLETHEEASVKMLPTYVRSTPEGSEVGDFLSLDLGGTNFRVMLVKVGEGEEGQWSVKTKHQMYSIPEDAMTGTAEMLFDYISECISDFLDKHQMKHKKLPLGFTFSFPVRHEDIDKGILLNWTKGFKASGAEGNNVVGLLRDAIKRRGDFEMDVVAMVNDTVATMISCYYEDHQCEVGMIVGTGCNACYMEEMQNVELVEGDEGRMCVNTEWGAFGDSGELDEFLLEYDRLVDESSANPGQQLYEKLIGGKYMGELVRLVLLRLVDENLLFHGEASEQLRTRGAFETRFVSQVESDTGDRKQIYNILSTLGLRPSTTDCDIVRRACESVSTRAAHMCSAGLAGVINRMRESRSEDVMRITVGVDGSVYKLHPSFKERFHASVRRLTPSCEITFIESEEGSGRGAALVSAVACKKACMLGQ
# Zucker obese fa/fa rats = assay: Oral Glucose Tolerance Test (OGTT); assay type: in vivo, rat; conditions: 10 mg/kg, given orally 120 minutes before glucose 2 g/kg; percent inhibition of blood glucose AUC vs vehicle
# Protocol: The animals were fasted for 2 hours before use for experiments. A test compound or a vehicle was given orally 120 minutes before oral administration of a glucose solution at a dose of 2 g/kg body weight. Blood glucose levels were measured using a Accucheck glucometer from tail bled samples taken at different time points before and after administration of glucose (time course of 60 minutes). […] Percent inhibition was determined using the AUC in the vehicle-control group as zero percent inhibition.
# Oral exposure = assay type: in vivo; conditions: compared with Example II107 in WO 03/015774
compound,measurement,setting,value
"COC[C@H](C)Oc1cc(Oc2ccc(S(C)(=O)=O)cc2)cc(C(=O)Nc2nccs2)c1 [Example 11b, 3-[(1S)-2-methoxy-(1-methylethyl)oxy]-5-[4-(methylsulfonyl)phenoxy]-N-1,3-thiazol-2-ylbenzamide]","EC50 values, Example 11b compared with Example II107 in WO 03/015774",[1]; comparison in words,broadly similar
same,EC50,"[1]; read-out: activating activity for glucokinase, EC50",30 nM
same,OGTT activity,Zucker obese fa/fa rats,29%
same,oral exposure,Oral exposure,superior oral exposure
